pIC50: −log10 of the molar value.

What is called pIC50 is the IC50 on a negative log10 scale, so that one unit is a factor of ten.

The test system of one test is J774 macrophages. Put plainly: Alamar Blue macrophage J774 viability assay. Format: cell-based. The settings on record: Mus musculus; J774 cells, 72 hours with compound, Alamar Blue readout; read-out: IC50. For orientation: Resazurin is reduced to fluorescent resorufin, in cell work by metabolically active cells.
For the next test, the system named is caspase 3. Put plainly: Caspase induction study (Nucview488 fluorogenic substrate) in the presence of TNFα. The note with it: human monocytes, 10 μM test compound, 10 ng/mL TNFα, Nucview488 stain. Format: cell-based. The procedure:
The ability to activate caspase 3 was studied using a fluorogenic enzyme substrate assay.
Briefly, human primary monocytes were isolated from whole blood using Ficoll gradients. The resulting cells were plated into microwell plates for 24 hours after which non-adherent cells were removed by washing. Cells were differentiated in the presence of 100 ng/mL MCSF. Cells were pre-treated with 10 μM test compound for 1 hour prior to stimulation with 10 ng/mL TNFα. Caspase 3 activation as an indicator of apoptosis was detected using the Nucview488 stain, which was added one hour prior to visualisation. The Nucview488 stain indicates the activation of caspase 3 (CPP32, apopain, YAMA), a cysteine peptidase which plays a key role in the induction of apoptosis in individual whole mammalian cells. Essentially, Nucview488 consists of a fluorogenic DNA dye and a DEVD substrate moiety specific for caspase 3. In itself, Nucview488 is nonfluorescent. However, upon entering the cell cytoplasm, Nucview488 is cleaved by caspase 3 to form a high-affinity DNA dye. The released DNA dye migrates to the cell nucleus to stain the nucleus bright green. This fluorescent staining produced in response to caspase 3 activity is monitored using fluorescent light microscopy.

For `O=S(=O)(N[C@H]1CC[C@@H](CO)C1)c1ccc(-c2ccc(F)cc2F)cc1` [ABD773, 2′,4′-Difluoro-N-((1 S,3R)-3-(hydroxymethyl)cyclopentyl)biphenyl-4-sulfonamide], the negative-log IC50 (pIC50) in the test with J774 macrophages is 6.89.
Take `O=S(=O)(N[C@H]1CC[C@@H](CO)CC1)c1ccc(-c2ccc(F)cc2F)cc1` [ABD781, 2′,4′-Difluoro-N-(cis-4-(hydroxymethyl)cyclohexyl)biphenyl-4-sulfonamide]: in the test with J774 macrophages, the pIC50 was 6.52. For the same compound, the “caspase 3 activation (fluorescence detected by light microscopy)” value in the test with caspase 3 was “significant activation of caspase 3”.
